Where no end group is shown, it is not given here.
Assays:
[1] = test system: BY-kinase A1B2 (substrate CapO); experiment: Procedure 2: inhibition of CapO phosphorylation by A1B2 (radioactivity incorporated in CapO); type: biochemical, Staphylococcus aureus; conditions: A1B2 50 pmol, CapO 50 pmole
Procedure: The procedure 2 is based on procedure 1, except that 5 pmole to 100 pmole of the protein substrate are also added either in the same time as the drug or concomitant with the radioactive ATP and the non-radioactive ATP.
(§1) The procedure was applied for A1B2 [34] and CapO [20] Each Gene has been cloned in the pQE30 vector (Qiagen) to allow fusion of a histidines-tag fused to the N-terminal end of either A1B2 or CapO. This overproducing plasmid has been transformed in the Escherichia coli XL 1-blue strain. Cells have been incubated at 37° C. under shaking until A600 reached 0.5. IPTG was then added at a final concentration of 0.5 mM, and growth was continued for 3 h at 37° C. under shaking. Cells were harvested by centrifugation at 3000×g for 10 min, washed in buffer A (Tris-HCl 50 mM pH7.5, Nacl 200 mM, glycerol 10%, imidazole 10 mM) containing DNase I and RNase A at a final concentration of […] each, lysozyme 1 mg/ml, and protease inhibitors cocktail. Cells were disrupted by sonication. The resulting suspension was centrifuged at 4° C. for 30 min at 30,000×g. The supernatant was incubated with Ni-NTA matrix (Qiagen), suitable for purification of 6 histidines fusion proteins, for 30 min at 4° C. under gentle shaking. The protein-resin complex was packed into a column for washing and elution steps. The column was washed with buffer B (Tris-HCl 50 mM pH7.5, Nacl 200 mM, glycerol 10%, imidazole 20 mM). Protein elution was carried out with buffer C (Tris-HCl 50 mM pH7.5, NaCl 200 mM, glycerol 10%, imidazole 150 mM). Eluted fractions were collected, analyzed by SDS-PAGE. Appropriated fractions are pooled and dialyzed overnight against buffer D (Tris-HCl 50 mM, pH7.5, NaCl 100 mM, DTT 1 mM, MgCl2 1 mM, glycerol 20%) and used for inhibitory tests or stored at +4° C., −20° C., or −80° C.
According to procedure 2, 50 pmol of A1B2 and 50 pmole of a substrate of A1B2, namely the protein CapO, were incubated with either 50 pmole, or 500 pmole, or 5 nmol of BYK001 for 15 min at 37° C. in a final volume of […]. Then, incubation was continued for 30″, or 1′, or 2′ or 5′ in the presence of […] of [g-^32P] ATP (specific activity 3000 Ci/mmole). The amount of radioactivity incorporated in CapO was determined by fluid scintillation counting after gel-electophoresis. The percentage of inhibition of CapO phosphorylation by A1B2 is expressed relatively to CapO radioactivity when incubation was performed without BYK001.

BY-kinase A1B2 = experiment: Procedure 1: inhibition of A1B2 autokinase activity (radioactivity incorporated in A1B2); type: biochemical, Staphylococcus aureus; design: ActivitY (inhibition): concentration or dose not given beside the values; conditions: for % of inhibition of A1B2 autokinase activity / Radioactivity incorporated in A1B2: A1B2 50 pmole
Procedure: 50 pmole of the purified BY-kinase (or the dephosphorylated BY-kinase) are incubated for 15 min to 1 hour in the presence of 50 pmole of the drug in a final volume of 20 microliters. The ratio BY-kinase/drug varies from 1/1 to 1/100. The reaction is performed in a buffer specific of each BY-kinase (pH condition, salt concentrations, etc.). The incubation is then continued for 30″ to 1 h in the presence of 5 microCurie of radioactive ATP (^32P or ^33P) labeled on g-P (specific activity 3000 Ci/mmole) and 50 microMolar non-radioactive ATP. The reaction is stopped by adding 5 microliter of gel-electrophoresis loading buffer 5 fold concentrate and heating 5 min at 100° C.
as §1
According to procedure 1, 50 pmole of A1B2 were incubated with either, 0 pmole, 50 pmole, or 500 pmole, or 5 nmol of BYK001 for 15 min at 37° C. in a final volume of […]. Then, incubation was continued for 30″, or 1′, or 2′ or 5′ in the presence of […] of [g-^32P] ATP (specific activity 3000 Ci/mmole). The amount of radioactivity incorporated in A1B2 was determined by fluid scintillation counting after gel-electophoresis. The percentage of inhibition of A1B2 autokinase activity is expressed relatively to the radioactivity incorporated in A1B2 when incubated without BYK001.

[2] = BYK001 50 pmole, incubation time 0.5 min
[3] = BYK001 50 pmole, incubation time 1 min
[4] = BYK001 50 pmole, incubation time 2 min
[5] = BYK001 50 pmole, incubation time 5 min
[6] = BYK001 500 pmole, incubation time 0.5 min
[7] = BYK001 500 pmole, incubation time 1 min
[8] = BYK001 500 pmole, incubation time 2 min
[9] = BYK001 500 pmole, incubation time 5 min
[10] = BYK001 5000 pmole, incubation time 0.5 min
[11] = BYK001 5000 pmole, incubation time 1 min
[12] = BYK001 5000 pmole, incubation time 2 min
[13] = BYK001 5000 pmole, incubation time 5 min

With “BYK001: peptide with adenine PNA on lysine side chain: S-A-S-Y-Y-A-Y-K(PNA)-G-T-D; native S. aureus tyrosine cluster sequence (SASYYAYK(adenine PNA)GTD)” the “% of inhibition of CapO phosphorylation by A1B2” value (shortened to “% of inhibition … by A1B2”) [1, 2] was 10.05%, the “Radioactivity incorporated in CapO” value [1, 2] was 3555 cpm and the “% of inhibition … by A1B2” value [1, 3] was 9.33%. The “Radioactivity incorporated in CapO” value [1, 3] was 6388 cpm, the “% of inhibition … by A1B2” value [1, 4] was 10.69% and the “Radioactivity incorporated in CapO” value [1, 4] was 15498 cpm. For the same substance, the “% of inhibition … by A1B2” value [1, 5] was 8.11%, the “Radioactivity incorporated in CapO” value [1, 5] was 31901 cpm and the “% of inhibition … by A1B2” value [1, 6] was 11.51%. The “Radioactivity incorporated in CapO” value [1, 6] was 3497 cpm, the “% of inhibition … by A1B2” value [1, 7] was 10.55% and the “Radioactivity incorporated in CapO” value [1, 7] was 6302 cpm. For the same substance, the “% of inhibition … by A1B2” value [1, 8] was 10.40%, the “Radioactivity incorporated in CapO” value [1, 8] was 15549 cpm and the “% of inhibition … by A1B2” value [1, 9] was 9.99%. For the same substance, the “Radioactivity incorporated in CapO” value [1, 9] was 31251 cpm, the “% of inhibition … by A1B2” value [1, 10] was 11.11% and the “Radioactivity incorporated in CapO” value [1, 10] was 3513 cpm. For the same substance, the “% of inhibition … by A1B2” value [1, 11] was 10.36%, the “Radioactivity incorporated in CapO” value [1, 11] was 6315 cpm and the “% of inhibition … by A1B2” value [1, 12] was 10.85%. The “Radioactivity incorporated in CapO” value [1, 12] was 15471 cpm, the “% of inhibition … by A1B2” value [1, 13] was 10.78% and the “Radioactivity incorporated in CapO” value [1, 13] was 30974 cpm. For the same substance, the “% of inhibition of A1B2 autokinase activity” value (BY-kinase A1B2; [2]) was 17.54%, the “Radioactivity incorporated in A1B2” value (BY-kinase A1B2; [2]) was 29233 cpm and the “% of inhibition of A1B2 autokinase activity” value (BY-kinase A1B2; [3]) was 16.10%. The “Radioactivity incorporated in A1B2” value (BY-kinase A1B2; [3]) was 71683 cpm, the “% of inhibition of A1B2 autokinase activity” value (BY-kinase A1B2; [4]) was 16.63% and the “Radioactivity incorporated in A1B2” value (BY-kinase A1B2; [4]) was 132537 cpm. The “% of inhibition of A1B2 autokinase activity” value (BY-kinase A1B2; [5]) was 14.68%, the “Radioactivity incorporated in A1B2” value (BY-kinase A1B2; [5]) was 325711 cpm and the “% of inhibition of A1B2 autokinase activity” value (BY-kinase A1B2; [6]) was 13.31%. The “Radioactivity incorporated in A1B2” value (BY-kinase A1B2; [6]) was 30734 cpm, the “% of inhibition of A1B2 autokinase activity” value (BY-kinase A1B2; [7]) was 15.17% and the “Radioactivity incorporated in A1B2” value (BY-kinase A1B2; [7]) was 72475 cpm. For the same substance, the “% of inhibition of A1B2 autokinase activity” value (BY-kinase A1B2; [8]) was 15.95%, the “Radioactivity incorporated in A1B2” value (BY-kinase A1B2; [8]) was 133624 cpm and the “% of inhibition of A1B2 autokinase activity” value (BY-kinase A1B2; [9]) was 14.87%. The “Radioactivity incorporated in A1B2” value (BY-kinase A1B2; [9]) was 324983 cpm, the “% of inhibition of A1B2 autokinase activity” value (BY-kinase A1B2; [10]) was 15.67% and the “Radioactivity incorporated in A1B2” value (BY-kinase A1B2; [10]) was 29899 cpm. The “% of inhibition of A1B2 autokinase activity” value (BY-kinase A1B2; [11]) was 15.11%, the “Radioactivity incorporated in A1B2” value (BY-kinase A1B2; [11]) was 72528 cpm and the “% of inhibition of A1B2 autokinase activity” value (BY-kinase A1B2; [12]) was 11.30%. The “Radioactivity incorporated in A1B2” value (BY-kinase A1B2; [12]) was 141005 cpm, the “% of inhibition of A1B2 autokinase activity” value (BY-kinase A1B2; [13]) was 15.20% and the “Radioactivity incorporated in A1B2” value (BY-kinase A1B2; [13]) was 323749 cpm. For the same substance, the “ActivitY (inhibition)” value (BY-kinase A1B2; Table 5, inhibition of BY-kinase A1B2) was 15.00%, the “inhibitory effect on BY-kinase A1B2” value (BY-kinase A1B2; conclusion from procedures 1 and 2) was “inhibitory effect” and the inhibition (BY-kinase A1B2; summary) was “around 15%”.
